These results are taken from US20250009902A1, “ARTIFICIAL ENZYME-BACTERIA SYSTEM AND USES THEREOF” (NATIONAL UNIVERSITY OF SINGAPORE, priority 2021, published 2025).

Series [1] deals with HT-29 cells.
Procedure: (§1) For the protection of cells from H2O2 induced oxidative stress, different concentrations of BL@B-SA50 were cultured with HT-29 cells in the absence or presence of H2O2 (200 μM) for 24 hours. Relative cell viabilities were tested by the 3-(4,5-dimethylthiazol-2-yl)-2,5-diphenyltetrazolium bromide (MTT) assay.
(§2) The concentrations of nanomaterials in different measurements of MTT assays were 0.625 μg/mL while that for confocal microscopy and flow cytometry were both 2.5 μg/mL. The viabilities of HT-29 cells without treatment were defined as 100%, while the ROS content of HT-29 cells without treatment was defined as 1.
Series [2] deals with HT-29 cells. The series is described as follows: HT-29 cell viability, MTT assay, with or without H2O2. As to conditions: 200 μM H2O2, MTT; H2O2 alone approximately 20%; FIG. 4k. (In general: Tetrazolium assays rely on reduction of a dye to a coloured formazan, in cell work by metabolically active cells.)
Procedure: as §1, §2

Regarding Bifidobacterium longum [BL], the “relative cell viability of HT29 cells (cytotoxicity / growth)” value in the series with HT-29 cells [1] is given as “could promote the growth of HT29”. The “viability of HT29 cells exposed to H2O2” value in the series with HT-29 cells [2] is on record as “also enhanced”.
